The text below walks through data of patent publication US20190083495A1, “Methods Of Preventing Or Reducing A Fibrotic Response Using CSF1R Inhibitors” (Massachusetts Institute of Technology, priority 2016, published 2019).

Entries after “also recorded” stand apart in the source; their conditions may differ.

The subject of one assay is C57BL/6 mice. Briefly: Fibrosis of implanted material spheres retrieved after 14-day intraperitoneal implantation (phase contrast / brightfield imaging). The assay is classed as in vivo. The source says:
All protocols were approved by the MIT Committee on Animal Care, and all surgical procedures and post-operative care were supervised by MIT Division of Comparative Medicine veterinary staff. All mice, wild type male immune-competent (non-diabetic), STZ-induced diabetic, as well as knockout C57BL/6 mice, were ordered pathogen-free from Jackson Laboratory (Bar Harbor, Me.) or Taconic (Hudson, N.Y.). The status of all mice was subsequently verified by testing sentinel animals, shown to be negative for at least 12 known mouse pathogens. Implanted mice were anesthetized with 3% isoflurane in oxygen and had their abdomens shaved and sterilized using betadine and isopropanol. C57BL/6-Nude (T KO, B6NU), C57BL/6-Rag2^null (T & B KO, RAGN12), C57BL/6-Rag2^null/Il2rγ^null (Rag2/γ, 4111) were ordered from Taconic (Hudson, N.Y.), and C57BL/6-IghM^null (BKO, 002288), (C57BL/6) B6.12956-Ccr6tm1(EGFP)Irw/J. (Ccr6, 013061), and C57BL/6-C3 KO (C3 KO, 003641) mice were ordered from Jackson Laboratory, Bar Harbor, Me.). Preoperatively, all mice received 0.05 mg/kg buprenorphine and 0.2 mL of 0.9% saline subcutaneously for pre-surgery analgesia and dehydration prevention. A midline (abdomen) incision (0.5 mm) was made and the peritoneal lining was exposed using blunt dissection. The peritoneal wall was then grasped with forceps and a 0.5-1 mm incision was made along the linea alba. A desired volume of spheres (all materials) were then loaded into a sterile pipette and implanted into the peritoneal cavity. The incision was then closed using 5-0 taper-tipped polydioxanone (PDS II) absorbable sutures, and the skin was closed using a wound clip and VetBond tissue glue. For subcutaneous implantation, ˜200-300 μL of 500 μm SLG20 spheres were injected s.c. following anesthesia with isofluorane. […]

The next assay has as its system CXCL10. Briefly: CXCL10 ELISA of protein lysates from retrieved alginate spheres and tissue. The assay is classed as in vivo, C57BL/6 mice. To be noted: lysates of alginate spheres and tissue retrieved at 14 days. (In general: ELISA stands for enzyme-linked immunosorbent assay.)

Take `COc1ccc(COc2ccc(Cc3cnc(N)nc3N)cc2OC)cc1` [GW2580]: in the assay on C57BL/6 mice (SLG20 alginate 500 μm spheres, 14 day implant, vs wild type/vehicle control), the “fibrosis on 500 μm alginate spheres” value is recorded as “prevented the fibrotic response; also recorded: completely eliminated; also recorded: prevents fibrosis”. The “fibrosis on 500 μm glass ceramic spheres” value in the assay on C57BL/6 mice (glass spheres, 14 days, vs saline vehicle) is “prevented the fibrotic response; also recorded: prevents fibrosis”. Besides, the “fibrosis on 500 μm polystyrene polymer spheres” value in the assay with C57BL/6 mice (polystyrene spheres, 14 days, vs saline vehicle) is “prevented the fibrotic response; also recorded: prevents fibrosis”. Besides, the CXCL10 protein level entry in the assay on CXCL10 was “increased reduction of CXCL10 back to wildtype levels”.
